Measurements: US20100004221A1, “THIAZEPINE DERIVATIVE” (DAIICHI SANKYO COMPANY, LIMITED, priority 2006, published 2010)

Tested on: not given
Test: not given
Conditions: not given

Question: Which melting point does the source give for `COc1cc(-c2ccc(F)c(Cl)c2)ccc1-c1nnc2n1CCSC(C)(CO)C2` (stereo not drawn) [Example 32, [3-(3′-Chloro-4′-fluoro-3-methoxybiphenyl-4-yl)-8-methyl-5,6,8,9-tetrahydro[1,2,4]triazolo[4,3-d][1,4]thiazepin-8-yl]methanol] here?
Answer: Its melting point is 238 to 241 °C.

Question: With `CC1(CO)Cc2nnc(-c3ccc(-c4ccc(F)cc4)cc3Cl)n2CCS1` (stereo not drawn) [Example 1, [3-(3-Chloro-4′-fluorobiphenyl-4-yl)-8-methyl-5,6,8,9-tetrahydro[1,2,4]triazolo[4,3-d][1,4]thiazepin-8-yl]methanol] as the molecule, how does the melting point read?
Answer: Its melting point is 190 to 193 °C.

Question: With `COc1ccc(-c2ccc(-c3nnc4n3CCSC(C)(CO)C4)c(Cl)c2)cc1` (stereo not drawn) [Example 21, [3-(3-Chloro-4′-methoxybiphenyl-4-yl)-8-methyl-5,6,8,9-tetrahydro[1,2,4]triazolo[4,3-d][1,4]thiazepin-8-yl]methanol] as the molecule, how does the melting point read?
Answer: Its melting point is 179 to 182 °C.

Question: With `CC1(CO)Cc2nnc(-c3ccc(N4CCCC4)cc3Cl)n2CCS1` (stereo not drawn) [Example 39, {3-[2-Chloro-4-(pyrrolidin-1-yl)phenyl]-8-methyl-5,6,8,9-tetrahydro[1,2,4]triazolo[4,3-d][1,4]thiazepin-8-yl}methanol] as the molecule, how does the melting point read?
Answer: Its melting point is 193 to 196 °C.

Question: For `COc1cc(-c2cccc(C#N)c2)ccc1-c1nnc2n1CCSC(C)(CO)C2` (stereo not drawn) [Example 25, 4′-[8-(Hydroxymethyl)-8-methyl-5,6,8,9-tetrahydro[1,2,4]triazolo[4,3-d][1,4]thiazepin-3-yl]-3′-methoxybiphenyl-3-carbonitrile], which melting point is on record?
Answer: The melting point was 232 to 236 °C.

Question: Which melting point does the source give for `CC1(CO)Cc2nnc(-c3cccc(-c4ccc(F)cc4)c3Cl)n2CCS1` (stereo not drawn) [Example 33, [3-(2-Chloro-4′-fluorobiphenyl-3-yl)-8-methyl-5,6,8,9-tetrahydro[1,2,4]triazolo[4,3-d][1,4]thiazepin-8-yl]methanol] here?
Answer: The melting point was 192 to 195 °C.

Question: With `CC1(CO)Cc2nnc(-c3ccc(-c4cccc(Cl)c4)cc3F)n2CCS1` (stereo not drawn) [Example 11, [3-(3′-Chloro-3-fluorobiphenyl-4-yl)-8-methyl-5,6,8,9-tetrahydro[1,2,4]triazolo[4,3-d][1,4]thiazepin-8-yl]methanol] as the molecule, how does the melting point read?
Answer: The melting point was 165 to 168 °C.

Question: For `CC1(CO)Cc2nnc(-c3ccc(-c4cccnc4)cc3Cl)n2CCS1` (stereo not drawn) [Example 35, {3-[2-Chloro-4-(pyridin-3-yl)phenyl]-8-methyl-5,6,8,9-tetrahydro[1,2,4]triazolo[4,3-d][1,4]thiazepin-8-yl}methanol], which melting point is on record?
Answer: The melting point was 206 to 209 °C.

Biological target: T1, human 11β-HSD1 (Homo sapiens, UniProt P28845)
T1 construct: cDNA coding for a full-length of human 11β-HSD1 in a mammal cell expression vector pCIneo; made in house; host or cells: HEK293 cells (transient transfection with pCIneo plasmid); microsome fraction used as enzyme source
T1 sequence (P28845 whole entry): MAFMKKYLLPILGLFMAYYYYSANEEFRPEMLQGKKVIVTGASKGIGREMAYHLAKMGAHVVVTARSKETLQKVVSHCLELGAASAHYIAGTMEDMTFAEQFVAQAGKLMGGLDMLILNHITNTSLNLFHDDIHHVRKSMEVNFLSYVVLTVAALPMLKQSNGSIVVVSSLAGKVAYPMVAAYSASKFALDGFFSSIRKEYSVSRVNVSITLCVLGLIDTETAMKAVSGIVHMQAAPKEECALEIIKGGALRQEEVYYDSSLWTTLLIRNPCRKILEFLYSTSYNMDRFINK
Test: 11β-HSD1 enzyme inhibition experiment
Assay type: biochemical
Conditions: test compound at 39 nM; microsome fraction of HEK293 cells expressing human 11β-HSD1; cortisone 160 nM, room temperature, 3 h; read-out: inhibiting effects on cortisol production dependent on the 11β-HSD1 expressing cells
Procedure: A plasmid obtained by incorporating cDNA coding for a full-length of human 11β-HSD1 in a mammal cell expression vector pCIneo (Promega Corporation) was introduced into HEK293 cells using Lipofectamine Plus Reagent (Invitrogen Corporation) according to the package insert. 48 h later, cells were collected and frozen at −80° C. Cells into which the pCIneo vector was introduced were prepared as a control. Cells were thawed and suspended in 20 mM HEPES, 1 mM ethylenediamine tetraacetic acid, 2 mM magnesium chloride (final concentrations), and a buffer containing a protease inhibitor cocktail (Roche), and 4.1 Mpa pressure was applied by N2 cavitation on the ice for 30 min to disrupt cells. The disrupted cell suspension was centrifuged at 1000×g at 4° C. for 10 min, and a supernatant thereof was recovered. The obtained supernatant was further ultracentrifuged at 105,000×g at 4° C. for 30 min, and the resulting precipitate was suspended in an assay buffer (50 mM tris buffer, 10% glycerol) as a microsome fraction and used as an enzyme source.
A reaction was performed on a 384-well plate (Greiner Bio One) using a reaction volume of 25 μL, and all the samples were diluted with an assay buffer (50 mM tris buffer, pH 7.4, 10% glycerol). 0.8 mM NADPH, 6 mM glucose 6-phosphate, 0.35 units/mL glucose 6-phosphate dehydrogenase (Sigma Chemical), and 3 mM magnesium chloride and a microsome fraction having a protein amount of 0.7 μg per well (final concentrations) were added to the plate, and a solution containing a test compound dissolved in dimethyl sulfoxide was added at a final concentration of 0.1% and preincubated at room temperature for 15 min. After completion of preincubation, cortisone at a final concentration of 160 nM was added to start a reaction, and the reaction was performed at room temperature for 3 h. 25 μL of 100 mM carbenoxolone (Sigma Chemical) was added to terminate the reaction, and the amount of produced cortisol was measured with Discovery (Hewlett-Packard Company) using a cortisol prototype kit (Cisbio International) according to the package insert.

Question: For `CC1(C2CC2)Cc2nnc(-c3ccccc3Cl)n2CCS1` (stereo not drawn) [Example 52, 3-(2-Chlorophenyl)-8-cyclopropyl-8-methyl-5,6,8,9-tetrahydro[1,2,4]triazolo[4,3-d][1,4]thiazepine], which inhibition at 0.039 µM is on record?
Answer: Its inhibition at 0.039 µM is 89%.

Question: For `COc1cc(-c2ccc(F)c(Cl)c2)ccc1-c1nnc2n1CCSC(C)(CO)C2` (stereo not drawn) [Example 32, [3-(3′-Chloro-4′-fluoro-3-methoxybiphenyl-4-yl)-8-methyl-5,6,8,9-tetrahydro[1,2,4]triazolo[4,3-d][1,4]thiazepin-8-yl]methanol], which inhibition at 0.039 µM is on record?
Answer: The inhibition at 0.039 µM was 35.8%.

Question: For `CC1(CO)Cc2nnc(-c3ccc(-c4ccc(F)cc4)cc3Cl)n2CCS1` (stereo not drawn) [Example 1, [3-(3-Chloro-4′-fluorobiphenyl-4-yl)-8-methyl-5,6,8,9-tetrahydro[1,2,4]triazolo[4,3-d][1,4]thiazepin-8-yl]methanol], which inhibition at 0.039 µM is on record?
Answer: The inhibition at 0.039 µM was 71.8%.

Question: Which inhibition at 0.039 µM does the source give for `Cc1c(-c2nnc3n2CCSC(C)(CO)C3)sc2ccc(Cl)cc12` (stereo not drawn) [Example 8, [3-(5-Chloro-3-methyl-1-benzothiophen-2-yl)-8-methyl-5,6,8,9-tetrahydro[1,2,4]triazolo[4,3-d][1,4]thiazepin-8-yl]methanol] here?
Answer: Its inhibition at 0.039 µM is 67.1%.
